Measured values published in ChEMBL document CHEMBL1201862, “PubChem BioAssay data set” (2004).
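Method: 48-hour compound exposure of cells in 96-well plates, five concentrations, linear interpolation of endpoints. Here, GI50 denotes the concentration required for 50% inhibition of growth.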 Calls of active or inactive are those of the source. Rule as the data show it: active = GI50 up to about 1.1 µM and inactive = higher.

How the values were obtained:
Test in all cases: DTP human tumour cell line panel, 48 h
[1] = test system: LOX IMVI
[2] = test system: HOP-92
[3] = test system: HCT-116
[4] = test system: HL-60
[5] = test system: MOLT-4
[6] = test system: UO-31
[7] = test system: SF-268
[8] = test system: Hs-578T
[9] = test system: OVCAR-3
[10] = test system: CCRF-CEM
[11] = test system: U-251
[12] = test system: A498
[13] = test system: EKVX
[14] = test system: SN12C
[15] = test system: NCI-H460
[16] = test system: KM12
[17] = test system: RPMI-8226
[18] = test system: IGROV-1
[19] = test system: HCC 2998

Measured: GI50

CC(C)(C)C(=O)c1c(O)c2ccccc2c2ccccc2c1=O
inactive: [1] 47.8 µM | [2] 32.4 µM | [3] > 100 µM | [4] > 100 µM | [5] > 100 µM | [6] 33.2 µM | [7] > 100 µM | [8] 85.7 µM | [9] 59.2 µM | [10] > 100 µM | [11] 33.3 µM | [12] 50.6 µM | [13] > 100 µM | [14] > 100 µM | [15] > 100 µM | [16] 79.3 µM

Clc1ccccc1C(Nc1ncccn1)Nc1ncccn1
inactive: [1] > 100 µM | [2] > 100 µM | [3] > 100 µM | [4] > 100 µM | [17] > 100 µM | [5] > 100 µM | [6] > 100 µM | [18] > 100 µM | [7] > 100 µM | [8] > 100 µM | [9] > 100 µM | [11] > 100 µM | [12] > 100 µM | [13] > 100 µM | [14] > 100 µM | [19] > 100 µM | [15] > 100 µM | [16] > 100 µM

CC1CC(C(=O)OC2OC(COC3OC(CO)C(OC4OC(C)C(O)C(O)C4O)C(O)C3O)C(O)C(O)C2O)C2CCC3(C)C(=CCC4(C)C3CCC3C(C)(CO)C(O)C(O)CC34C)C2C1C (stereo not drawn)
inactive: [1] 21.7 µM | [2] 17.4 µM | [3] 18.2 µM | [4] 21.6 µM | [17] 21.4 µM | [5] 19.6 µM | [6] > 100 µM | [18] 16.9 µM | [7] 19 µM | [8] 17.7 µM | [9] 23.3 µM | [10] 21.9 µM | [11] 17.5 µM | [12] > 10 µM | [13] > 10 µM | [14] 20.7 µM | [19] 21.8 µM | [15] 20.7 µM | [16] 17.9 µM

Cc1cc(C)c(C(=O)c2nnc3ccccc3c2N)c(C)c1
inactive: [1] 16 µM | [2] 3.65 µM | [3] 10.3 µM | [4] 7.55 µM | [17] 24.9 µM | [5] 45.4 µM | [18] 15.3 µM | [7] 48.3 µM | [8] 24 µM | [9] 16.3 µM | [10] 31 µM | [11] 28.7 µM | [12] 26.9 µM | [14] 15.3 µM | [16] 16.4 µM
